Assay results taken from PubChem BioAssay AID330 (DTP/NCI, 2004).
“And” between values parts separate entries of the source, which are not always exact repeats. Equal values may be shown once. Toxic doses and inconclusive results are not listed.

Tested on: P388 leukemia ip, CD2F1 mice, survival T/C
Assay: NCI In Vivo Anticancer Drug Screen. Data for tumor model P388 Leukemia (intraperitoneal) in CD2F1 (CDF1) mice
Conditions: endpoint: median survival time, higher = longer survival
Outline: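 Mice carrying the transplanted tumor received test compound or vehicle. Survival was recorded in each group, and the value is the treated-group measurement divided by that of the vehicle-treated control group.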

[1] = dose: 12.5 mg/kg/injection, schedule: Q01DX005 (ip), vehicle: saline with Tween-80
[2] = dose: 25.0 mg/kg/injection, schedule: Q01DX005 (ip), vehicle: saline with Tween-80
[3] = dose: 50.0 mg/kg/injection, schedule: Q01DX005 (ip), vehicle: saline with Tween-80
[4] = dose: 50.0 mg/kg/injection, schedule: Q01DX005 (ip), vehicle: Klucel (hydroxypropylcellulose) (HPC)
[5] = dose: 100.0 mg/kg/injection, schedule: Q01DX005 (ip), vehicle: Klucel (hydroxypropylcellulose) (HPC)
[6] = dose: 200.0 mg/kg/injection, schedule: Q01DX005 (ip), vehicle: Klucel (hydroxypropylcellulose) (HPC)
[7] = dose: 25.0 mg/kg/injection, schedule: Q01DX005 (ip), vehicle: Klucel (hydroxypropylcellulose) (HPC)
[8] = dose: 100.0 mg/kg/injection, schedule: Q01DX005 (ip), vehicle: saline with Tween-80
[9] = dose: 200.0 mg/kg/injection, schedule: Q01DX005 (ip), vehicle: saline with Tween-80
[10] = dose: 50.0 mg/kg/injection, schedule: Q01DX009 (ip), vehicle: Klucel (hydroxypropylcellulose) (HPC)
[11] = dose: 100.0 mg/kg/injection, schedule: Q01DX009 (ip), vehicle: Klucel (hydroxypropylcellulose) (HPC)
[12] = dose: 12.5 mg/kg/injection, schedule: Q01DX005 (ip), vehicle: Klucel (hydroxypropylcellulose) (HPC)
[13] = dose: 12.5 mg/kg/injection, schedule: Q01DX005 (ip), vehicle: saline
[14] = dose: 25.0 mg/kg/injection, schedule: Q01DX005 (ip), vehicle: saline
[15] = dose: 50.0 mg/kg/injection, schedule: Q01DX005 (ip), vehicle: saline
[16] = dose: 6.25 mg/kg/injection, schedule: Q01DX009 (ip), vehicle: saline with Tween-80
[17] = dose: 12.5 mg/kg/injection, schedule: Q01DX009 (ip), vehicle: saline with Tween-80
[18] = dose: 25.0 mg/kg/injection, schedule: Q01DX009 (ip), vehicle: saline with Tween-80
[19] = dose: 50.0 mg/kg/injection, schedule: Q01DX009 (ip), vehicle: saline with Tween-80
[20] = dose: 100.0 mg/kg/injection, schedule: Q01DX009 (ip), vehicle: saline with Tween-80
[21] = dose: 200.0 mg/kg/injection, schedule: Q01DX009 (ip), vehicle: saline with Tween-80

Compound: CCCCCCN(CCCCCC)c1nsc(Cl)n1
- T/C (dose: 40.0 mg/kg/injection, schedule: Q01DX009 (ip), vehicle: saline with Tween-80): 105 % of control
- T/C (dose: 80.0 mg/kg/injection, schedule: Q01DX009 (ip), vehicle: saline with Tween-80): 108 % of control
- T/C (dose: 160.0 mg/kg/injection, schedule: Q01DX009 (ip), vehicle: saline with Tween-80): 111 % of control

Compound: N#C/C(=N\NC(=O)c1ccccc1)c1ccccc1
- T/C [1]: 100 % of control
- T/C [2]: 95 % of control
- T/C [3]: 103 % of control and 95 % of control

Compound: COc1cc(Br)c(/C=N/O)cc1OC
- T/C [4]: 104 % of control
- T/C [5]: 95 % of control
- T/C [6]: 91 % of control

Compound: COC(=O)C(CSC1CCCCC1=O)NC(C)=O (stereo not drawn)
- T/C [7]: 93 % of control
- T/C [4]: 95 % of control
- T/C [5]: 101 % of control

Compound: COC(=O)c1c(OC)cc2c(Cl)c3c(c(O)c2c1C)C(=O)[C@@]1(O)C(=O)C=C(OC)[C@H](O)[C@@]1(O)C3=O
- T/C [1]: 104 % of control
- T/C [2]: 109 % of control
- T/C [3]: 95 % of control
- T/C [8]: 104 % of control
- T/C [9]: 110 % of control

Compound: CS(=O)(=O)/C=C/c1ccc[nH]1
- T/C [10]: 98 % of control
- T/C [11]: 99 % of control
- T/C (dose: 200.0 mg/kg/injection, schedule: Q01DX009 (ip), vehicle: Klucel (hydroxypropylcellulose) (HPC)): 99 % of control

Compound: COc1cccc(NC2=NCCS2)c1
- T/C [3]: 102 % of control
- T/C [8]: 105 % of control
- T/C [9]: 98 % of control

Compound: C=C(C)c1nc(N(C)C)nc(N(C)C)n1
- T/C (dose: 30.0 mg/kg/injection, schedule: Q01DX005 (ip), vehicle: Klucel (hydroxypropylcellulose) (HPC)): 98 % of control
- T/C (dose: 60.0 mg/kg/injection, schedule: Q01DX005 (ip), vehicle: Klucel (hydroxypropylcellulose) (HPC)): 88 % of control and 95 % of control
- T/C (dose: 120.0 mg/kg/injection, schedule: Q01DX005 (ip), vehicle: Klucel (hydroxypropylcellulose) (HPC)): 88 % of control

Compound: CSC(=S)N1CC(=O)N(C(=S)SC)CC1=O
- T/C [4]: 87 % of control
- T/C [5]: 92 % of control
- T/C [6]: 86 % of control

Compound: O=c1c2ccccc2nc(CN(CCCl)CCCl)n1-c1ccc(O)c(CN(CCCl)CCCl)c1
- T/C (dose: 100.0 mg/kg/injection, schedule: Q01DX001 (ip), vehicle: saline with Tween-80): 151 % of control
- T/C (dose: 200.0 mg/kg/injection, schedule: Q01DX001 (ip), vehicle: saline with Tween-80): 155 % of control
- T/C (dose: 400.0 mg/kg/injection, schedule: Q01DX001 (ip), vehicle: saline with Tween-80): 270 % of control

Compound: CC(C)CCCCCCCCCCCCC(=O)NCC(=O)O
- T/C (dose: 12.5 mg/kg/injection, schedule: Q01DX009 (ip), vehicle: distilled water + Tween-80): 96 % of control
- T/C (dose: 25.0 mg/kg/injection, schedule: Q01DX009 (ip), vehicle: distilled water + Tween-80): 96 % of control
- T/C (dose: 50.0 mg/kg/injection, schedule: Q01DX009 (ip), vehicle: distilled water + Tween-80): 86 % of control
- T/C (dose: 100.0 mg/kg/injection, schedule: Q01DX009 (ip), vehicle: distilled water + Tween-80): 86 % of control
- T/C (dose: 200.0 mg/kg/injection, schedule: Q01DX009 (ip), vehicle: distilled water + Tween-80): 87 % of control

Compound: NC(=O)c1cc([N+](=O)[O-])cnc1Sc1ncn[nH]1
- T/C [10]: 98 % of control
- T/C [11]: 107 % of control

Compound: COc1cc(NN=C(C#N)C#N)c(OC)cc1Cl
- T/C (dose: 6.25 mg/kg/injection, schedule: Q01DX005 (ip), vehicle: Klucel (hydroxypropylcellulose) (HPC)): 102 % of control
- T/C [12]: 107 % of control
- T/C [7]: 107 % of control

Compound: N#CC(c1c(Cl)cccc1N1CCCCC1)N1CCCCC1 (stereo not drawn)
- T/C [3]: 108 % of control
- T/C [8]: 104 % of control
- T/C [9]: 100 % of control

Compound: CN1Cc2ccccc2[C@H]2C(c3ccccc3)=NN(c3ccccc3)[C@H]21
- T/C [3]: 103 % of control
- T/C [8]: 94 % of control
- T/C [9]: 92 % of control

Compound: CCN(CC)CC(C)(O)CNc1cc(OC)cc2cccnc12 (stereo not drawn)
- T/C [13]: 97 % of control
- T/C [14]: 101 % of control
- T/C [15]: 93 % of control and 94 % of control

Compound: C1CCC(CCCCc2nn[nH]n2)CC1
- T/C [3]: 102 % of control
- T/C [8]: 100 % of control

Compound: Cc1ccc2c(c1)sc(C)[n+]2CCO
- T/C (dose: 60.0 mg/kg/injection, schedule: Q01DX005 (ip), vehicle: saline with Tween-80): 100 % of control
- T/C (dose: 120.0 mg/kg/injection, schedule: Q01DX005 (ip), vehicle: saline with Tween-80): 101 % of control
- T/C (dose: 240.0 mg/kg/injection, schedule: Q01DX005 (ip), vehicle: saline with Tween-80): 101 % of control

Compound: Cn1c(N)c(C(=O)CCc2ccccc2)c(=O)n(C)c1=O
- T/C [3]: 97 % of control
- T/C [8]: 97 % of control
- T/C [9]: 96 % of control

Compound: CC(=O)OC1CCC2(C)C(=CCC3C2CCC2(C)C3CC3ON=C(C)C32)C1 (stereo not drawn)
- T/C [12]: 101 % of control
- T/C [7]: 99 % of control
- T/C [4]: 98 % of control
- T/C [5]: 86 % of control
- T/C [6]: 86 % of control

Compound: Cn1c2c(c3cc(Cl)ccc31)-c1ncncc1CC2
- T/C [12]: 97 % of control
- T/C [7]: 97 % of control
- T/C [4]: 101 % of control
- T/C (dose: 100.0 mg/kg/injection, schedule: Q04DX002 (ip), vehicle: Klucel (hydroxypropylcellulose) (HPC)): 92 % of control

Compound: CSC(=S)n1nc(C)c(N=Nc2cc(Cl)ccc2Cl)c1C
- T/C (dose: 6.25 mg/kg/injection, schedule: Q01DX005 (ip), vehicle: saline with Tween-80): 93 % of control
- T/C [1]: 99 % of control
- T/C [2]: 95 % of control
- T/C [9]: 98 % of control

Compound: CCN(CC)CCNc1ncnc2c1cnn2C
- T/C [13]: 106 % of control
- T/C [14]: 106 % of control
- T/C [3]: 99 % of control
- T/C [15]: 106 % of control

Compound: CCOP(=S)(N/N=C/c1cccnc1)OCC
- T/C (dose: 100.0 mg/kg/injection, schedule: Q01DX001 (ip), vehicle: Klucel (hydroxypropylcellulose) (HPC)): 101 % of control
- T/C (dose: 200.0 mg/kg/injection, schedule: Q01DX001 (ip), vehicle: Klucel (hydroxypropylcellulose) (HPC)): 101 % of control
- T/C (dose: 400.0 mg/kg/injection, schedule: Q01DX001 (ip), vehicle: Klucel (hydroxypropylcellulose) (HPC)): 108 % of control

Compound: c1ccc2c3ccc(c2c1)CCc1ccc(c2ccccc12)CC3
- T/C (dose: 100.0 mg/kg/injection, schedule: Q04DX003 (ip), vehicle: other): 96 % of control
- T/C (dose: 200.0 mg/kg/injection, schedule: Q04DX003 (ip), vehicle: other): 90 % of control

Compound: CCOC(=O)c1c[nH]c2ccc(N(CCCl)CCCl)cc12
- T/C (dose: 5.33 mg/kg/injection, schedule: Q04DX003 (ip), vehicle: saline with Tween-80): 160 % of control
- T/C [16]: 150 % of control
- T/C (dose: 8.0 mg/kg/injection, schedule: Q04DX003 (ip), vehicle: saline with Tween-80): 160 % of control
- T/C (dose: 12.0 mg/kg/injection, schedule: Q04DX003 (ip), vehicle: saline with Tween-80): 170 % of control
- T/C [17]: 181 % of control
- T/C (dose: 18.0 mg/kg/injection, schedule: Q04DX003 (ip), vehicle: saline with Tween-80): 185 % of control
- T/C [18]: 109 % of control

Compound: CN=C1SC(C)(C)NN1C
- T/C [12]: 104 % of control
- T/C [7]: 104 % of control
- T/C [4]: 101 % of control and 114 % of control

Compound: O=C(O)C1CCCN1C(=O)OCC1c2ccccc2-c2ccccc21 (stereo not drawn)
- T/C [4]: 99 % of control
- T/C [5]: 99 % of control
- T/C [6]: 95 % of control

Compound: Cc1ccc(N2CC(=O)N3CCCC(C)N3C(=O)C2)cc1 (stereo not drawn)
- T/C [3]: 99 % of control
- T/C [8]: 99 % of control
- T/C [9]: 99 % of control

Compound: O=C(CC(=NCCCN=C(CC(=O)c1ccccc1)c1ccccc1)c1ccccc1)c1ccccc1
- T/C [19]: 96 % of control
- T/C [20]: 100 % of control
- T/C [21]: 100 % of control

Compound: O=C1c2c(Cl)c(Cl)c(Cl)c(Cl)c2C(=O)N1O
- T/C [16]: 100 % of control
- T/C [17]: 100 % of control
- T/C [18]: 104 % of control

Compound: O=C1Nc2ccccc2C1=O
- T/C [19]: 100 % of control
- T/C [20]: 101 % of control
- T/C [21]: 105 % of control

Compound: N#CC1=CNc2ccccc2N=C1N
- T/C [3]: 104 % of control
- T/C [8]: 99 % of control
